In PMC5967645 (European scientific journal, 2017) one finds IC50 data, which are given here for one compound.

The IC50 is the concentration at which inhibition is half-maximal.

The subject of this test is calpain. Description: immunoblot of calcium-induced calpain-mediated spectrin breakdown product. In kind it is biochemical, Rattus norvegicus. (In western blotting, separated proteins are transferred to a membrane and probed.)

SMILES strings stand for the structures.

For `CCOC(=O)[C@H]1O[C@@H]1C(=O)N[C@@H](CC(C)C)C(=O)NCCC(C)C` [E64d, 2S,3S-trans-epoxysuccinyl-L-leucylamido-3-methylbutane ethyl ester], the IC50 is 3 to 6 µM.
